Test results as given in US20260285850A1, “SUBSTITUTED OXAZOLIDINONES AND IMIDAZOLINONES AS HERBICIDES” (FMC CORPORATION, priority 2023, published 2026).

How the values were obtained:
Type in all cases: in vivo
[1] = test system: palmer (palmer amaranth, palmer pigweed, Amaranthus palmeri); experiment: Test A preemergence soil spray, visual injury rating 0-100; settings: 10 days
Method in brief: (§1)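 Compound in a non-phytotoxic, surfactant-containing solvent is applied either as a directed soil spray before seedlings emerge or onto emerged plants 2-10 cm tall; pots hold a loam-sand blend. Plants grow 10 days under greenhouse conditions and are rated by eye against untreated controls (0 no effect, 100 complete control).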

[2] = test system: green foxtail (Setaria viridis); experiment: as above; settings: 10 days
Method in brief: as §1

corn (Zea mays) [3] = experiment: as above; settings: 10 days
Method in brief: as §1

[4] = test system: ryegrass, Italian (italian ryegrass, Lolium multiflorum); experiment: as above; settings: 10 days
Method in brief: as §1

[5] = test system: wheat (Triticum aestivum); experiment: as above; settings: 10 days
Method in brief: as §1

[6] = test system: ragweed (common ragweed, Ambrosia artemisiifolia); experiment: as above; settings: 10 days
Method in brief: as §1

kochia (Bassia scoparia) [7] = experiment: as above; settings: 10 days
Method in brief: as §1

soybean (Glycine max) [8] = experiment: as above; settings: 10 days
Method in brief: as §1

[9] = test system: barnyardgrass (Echinochloa crus-galli); experiment: as above; settings: 10 days
Method in brief: as §1

[10] = test system: oat, wild (wild oat, Avena fatua); experiment: as above; settings: 10 days
Method in brief: as §1

[11] = test system: blackgrass (Alopecurus myosuroides); experiment: as above; settings: 10 days
Method in brief: as §1

[12] = test system: ducksalad (Heteranthera limosa); experiment: Test B flooded paddy test, visual plant response rating 0-100; settings: 250 g ai/ha, Flood, applied to paddy water, evaluated after 13 days
Method in brief: (§2)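 Visual evaluation after 13 days. Water-applied treatment, 3 cm flood depth held constant, plants at 2-leaf stage at treatment.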

rice (Oryza sativa) = experiment: as above; settings: 250 g ai/ha, Flood, applied to paddy water, evaluated after 13 days
Method in brief: as §2

[13] = test system: barnyardgrass (Echinochloa crusgalli); experiment: as above; settings: 250 g ai/ha, Flood, applied to paddy water, evaluated after 13 days
Method in brief: as §2

[14] = test system: sedge, umbrella (small-flower umbrella sedge, Cyperus difformis); experiment: as above; settings: 250 g ai/ha, Flood, applied to paddy water, evaluated after 13 days
Method in brief: as §2

[15] = test system: palmer (palmer amaranth, palmer pigweed, Amaranthus palmeri); experiment: Test A postemergence application, visual injury rating 0-100
Method in brief: as §1

[16] = test system: green foxtail (Setaria viridis); experiment: as above
Method in brief: as §1

corn (Zea mays) [17] = experiment: as above
Method in brief: as §1

[18] = test system: ryegrass, Italian (italian ryegrass, Lolium multiflorum); experiment: as above
Method in brief: as §1

[19] = test system: wheat (Triticum aestivum); experiment: as above
Method in brief: as §1

[20] = test system: ragweed (common ragweed, Ambrosia artemisiifolia); experiment: as above
Method in brief: as §1

kochia (Bassia scoparia) [21] = experiment: as above
Method in brief: as §1

soybean (Glycine max) [22] = experiment: as above
Method in brief: as §1

[23] = test system: horseweed (Erigeron canadensis); experiment: as above
Method in brief: as §1

[24] = test system: barnyardgrass (Echinochloa crus-galli); experiment: as above
Method in brief: as §1

[25] = test system: oat, wild (wild oat, Avena fatua); experiment: as above
Method in brief: as §1

[26] = test system: blackgrass (Alopecurus myosuroides); experiment: as above
Method in brief: as §1

[27] = test system: galium (catchweed bedstraw, Galium aparine); experiment: as above
Method in brief: as §1

[28] = 62 g ai/ha, 0 = no effect, 100 = complete control
[29] = 62 g ai/ha, postemergence, 10 days, 0 = no effect, 100 = complete control
[30] = Postemergence, 16 g ai/ha, greenhouse 10 days, 0 no effect, 100 complete control

SMILES: CC1(C(=O)NC2CC=C(C(=O)NS(=O)(=O)C(C)(C)C)C2)CN(c2cc(F)cc(F)c2)C(=O)O1 (racemic) [Compound 91]
- Pigweed, Palmer plant response rating ([1]; 16 g ai/ha, 0 to 100 scale): 0
- Pigweed, Palmer plant response rating (0-100) [1, 28]: 0
- Foxtail, Green plant response rating ([2]; 16 g ai/ha, 0 to 100 scale): 0
- Foxtail, Green plant response rating (0-100) [2, 28]: 0
- Corn plant response rating (corn (Zea mays) [3]; 16 g ai/ha, 0 to 100 scale): 0
- Corn plant response rating (0-100) (corn (Zea mays) [3]; [28]): 0
- Ryegrass, Italian plant response rating ([4]; 16 g ai/ha, 0 to 100 scale): 0
- Ryegrass, Italian plant response rating (0-100) [4, 28]: 0
- Wheat plant response rating ([5]; 16 g ai/ha, 0 to 100 scale): 0
- Wheat plant response rating (0-100) [5, 28]: 0
- Ragweed plant response rating ([6]; 16 g ai/ha, 0 to 100 scale): 0
- Ragweed plant response rating (0-100) [6, 28]: 0
- Kochia plant response rating (kochia (Bassia scoparia) [7]; 16 g ai/ha, 0 to 100 scale): 0
- Kochia plant response rating (0-100) (kochia (Bassia scoparia) [7]; [28]): 0
- Soybean plant response rating (soybean (Glycine max) [8]; 16 g ai/ha, 0 to 100 scale): 0
- Soybean plant response rating (0-100) (soybean (Glycine max) [8]; [28]): 0
- Barnyardgrass plant response rating ([9]; 16 g ai/ha, 0 to 100 scale): 0
- Barnyardgrass plant response rating (0-100) [9, 28]: 10
- Oat, Wild plant response rating ([10]; 16 g ai/ha, 0 to 100 scale): 0
- Oat, Wild plant response rating (0-100) [10, 28]: 0
- Blackgrass plant response rating ([11]; 16 g ai/ha, 0 to 100 scale): 0
- Blackgrass plant response rating (0-100) [11, 28]: 0
- Plant response rating, Ducksalad (0 to 100 scale, 0 is no effect and 100 is complete control) [12]: 0
- Plant response rating, Rice (0 to 100 scale, 0 is no effect and 100 is complete control) (rice (Oryza sativa)): 0
- Plant response rating, Barnyardgrass (0 to 100 scale, 0 is no effect and 100 is complete control) [13]: 0
- Plant response rating, Sedge, Umbrella (0 to 100 scale, 0 is no effect and 100 is complete control) [14]: 0
- Pigweed, Palmer plant response rating (0-100) [15, 29]: 50
- Pigweed, Palmer plant response rating (0 to 100 scale) [15, 30]: 0
- Foxtail, Green plant response rating (0-100) [16, 29]: 20
- Foxtail, Green plant response rating (0 to 100 scale) [16, 30]: 0
- Corn plant response rating (0-100) (corn (Zea mays) [17]; [29]): 30
- Corn plant response rating (0 to 100 scale) (corn (Zea mays) [17]; [30]): 0
- Ryegrass, Italian plant response rating (0-100) [18, 29]: 40
- Ryegrass, Italian plant response rating (0 to 100 scale) [18, 30]: 0
- Wheat plant response rating (0-100) [19, 29]: 50
- Wheat plant response rating (0 to 100 scale) [19, 30]: 0
- Ragweed plant response rating (0-100) [20, 29]: 20
- Ragweed plant response rating (0 to 100 scale) [20, 30]: 0
- Kochia plant response rating (0-100) (kochia (Bassia scoparia) [21]; [29]): 40
- Kochia plant response rating (0 to 100 scale) (kochia (Bassia scoparia) [21]; [30]): 0
- Soybean plant response rating (0-100) (soybean (Glycine max) [22]; [29]): 30
- Soybean plant response rating (0 to 100 scale) (soybean (Glycine max) [22]; [30]): 0
- Horseweed plant response rating (0-100) [23, 29]: 0
- Horseweed plant response rating (0 to 100 scale) [23, 30]: 10
- Barnyardgrass plant response rating (0-100) [24, 29]: 40
- Barnyardgrass plant response rating (0 to 100 scale) [24, 30]: 0
- Oat, Wild plant response rating (0-100) [25, 29]: 20
- Oat, Wild plant response rating (0 to 100 scale) [25, 30]: 0
- Blackgrass plant response rating (0-100) [26, 29]: 10
- Blackgrass plant response rating (0 to 100 scale) [26, 30]: 0
- Galium plant response rating (0-100) [27, 29]: 10
- Galium plant response rating (0 to 100 scale) [27, 30]: 0
